Data: patent US8426437B2, “Pyrroloquinoline derivatives and their use as protein kinases inhibitors” (Pierre Fabre Medicament, priority 2005, dated 2013)

Legend:
Format in all cases: biochemical
EGFR (h) = target: T1, EGFR (h) (Homo sapiens, UniProt P00533); test: Upstate kinase panel: EGFR
T1 construct: purchased Upstate
Protocol: (§1) These kinases are produced by Upstate and screened according to the respective protocols indicated by the supplier (http://www.upstate.com/features/kp_protocols.asp). Examples 1, 12, 166 and 238 were tested at a concentration of 20 μM, 10 μM, 1 μM and 1 μM respectively in the presence of 10 μM of ATP for examples 1 and 12 and at the concentrations of ATP shown in parentheses for examples 166 and 238. The results shown in Table VII correspond to percentage inhibition of the kinase tested in the presence of the compound, relative to a control effected without the compound.

RET = target: T2, RET (Homo sapiens, UniProt P07949); test: Inhibition of RET kinase activity, recombinant RET method (Kinase-Glo); settings: RET 2 μg/ml, poly-EY4 substrate, 20 μM ATP, two hours at 30° C.
T2 construct: purchased Upstate 14-570MG
Procedure, shortened: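 Recombinant RET at 2 μg/ml in 20 mM MOPS/NaOH pH 7.0, 1 mM EDTA, 5% glycerol, 0.01% Brij35, 0.1% 2-mercaptoethanol, 1 mg/ml BSA; compounds 10 nM–30 μM final.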

cSRC (h) = target: T3, cSRC (h) (Homo sapiens, UniProt P12931); test: Upstate kinase panel: cSRC
T3 construct: purchased Upstate
Protocol: as §1

ROCK-II (h) = target: T4, ROCK-II (h) (Homo sapiens, UniProt O75116); test: Upstate kinase panel: ROCK-II
T4 construct: purchased Upstate
Protocol: as §1

MAPK2 (h) = target: T5, MAPK2 (h) (Homo sapiens, UniProt P28482); test: Upstate kinase panel: MAPK2
T5 construct: purchased Upstate
Protocol: as §1

GSK3B (h) = target: T6, GSK3B (h) (Homo sapiens, UniProt P49841); test: Upstate kinase panel: GSK3B
T6 construct: purchased Upstate
Protocol: as §1

PDGFRβ (h) = target: T7, PDGFRβ (h) (Homo sapiens, UniProt P09619); test: Upstate kinase panel: PDGFRβ
T7 construct: purchased Upstate
Protocol: as §1

JAK3 (h) = target: T8, JAK3 (h) (Homo sapiens, UniProt P52333); test: Upstate kinase panel: JAK3
T8 construct: purchased Upstate
T8 sequence (P52333 1-1124): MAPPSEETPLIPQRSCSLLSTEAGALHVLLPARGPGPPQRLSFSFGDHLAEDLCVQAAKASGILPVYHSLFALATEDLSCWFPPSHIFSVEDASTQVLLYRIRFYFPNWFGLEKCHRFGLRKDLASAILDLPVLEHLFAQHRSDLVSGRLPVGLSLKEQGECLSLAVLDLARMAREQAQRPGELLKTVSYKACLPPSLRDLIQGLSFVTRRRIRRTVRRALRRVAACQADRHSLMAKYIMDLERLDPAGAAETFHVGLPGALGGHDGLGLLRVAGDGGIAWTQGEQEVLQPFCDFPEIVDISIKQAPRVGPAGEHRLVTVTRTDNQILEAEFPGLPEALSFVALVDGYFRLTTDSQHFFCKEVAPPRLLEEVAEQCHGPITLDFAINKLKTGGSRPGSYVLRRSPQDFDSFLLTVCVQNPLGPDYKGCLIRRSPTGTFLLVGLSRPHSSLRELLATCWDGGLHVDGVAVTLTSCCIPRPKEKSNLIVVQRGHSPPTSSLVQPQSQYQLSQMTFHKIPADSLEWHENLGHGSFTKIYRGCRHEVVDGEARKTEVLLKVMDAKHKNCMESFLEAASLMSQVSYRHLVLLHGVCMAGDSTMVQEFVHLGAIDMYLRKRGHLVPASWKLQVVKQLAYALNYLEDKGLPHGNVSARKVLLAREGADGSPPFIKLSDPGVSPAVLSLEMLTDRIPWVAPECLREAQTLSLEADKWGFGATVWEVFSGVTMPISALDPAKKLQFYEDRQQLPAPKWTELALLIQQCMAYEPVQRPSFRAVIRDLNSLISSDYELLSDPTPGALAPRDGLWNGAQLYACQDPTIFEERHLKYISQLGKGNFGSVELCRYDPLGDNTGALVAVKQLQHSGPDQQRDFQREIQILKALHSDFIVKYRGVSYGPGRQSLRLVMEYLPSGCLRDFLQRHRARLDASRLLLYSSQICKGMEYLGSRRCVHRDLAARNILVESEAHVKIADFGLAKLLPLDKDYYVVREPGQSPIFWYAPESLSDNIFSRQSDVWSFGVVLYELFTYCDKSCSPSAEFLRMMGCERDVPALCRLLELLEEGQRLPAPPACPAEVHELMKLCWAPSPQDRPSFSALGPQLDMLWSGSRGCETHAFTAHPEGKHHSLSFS
Protocol: as §1

c-RAF (h) = target: T9, c-RAF (h) (Homo sapiens, UniProt P04049, Y340D/Y341D); test: Upstate kinase panel: c-RAF
T9 construct: purchased Upstate
Protocol: as §1

FGFR2 (h) = target: T10, FGFR2 (h) (Homo sapiens, UniProt P21802); test: Upstate kinase panel: FGFR2; settings: 10 μM ATP
T10 construct: purchased Upstate
Protocol: as §1

CDK2/cyclinE (h) = target: T11, CDK2/cyclinE (h) (Homo sapiens, UniProt P24941); test: Upstate kinase panel: CDK2/cyclinE; settings: 10 μM ATP
T11 construct: purchased Upstate
Protocol: as §1

IGF-1R (h) = target: T12, IGF-1R (h) (Homo sapiens, UniProt P08069); test: Upstate kinase panel: IGF-1R; settings: 10 μM ATP
T12 construct: purchased Upstate
Protocol: as §1

[1] = compound 1 μM, ATP (10), read-out: % inhibition at 1 μMol
[2] = compound 1 μM, ATP (15), read-out: % inhibition at 1 μMol
[3] = compound 20 μM, 10 μM ATP, read-out: % inhibition at 20 μMol
[4] = compound 20 μM, read-out: % inhibition at 20 μMol
[5] = compound 10 μM, 10 μM ATP, read-out: % inhibition at 10 μMol
[6] = compound 10 μM, read-out: % inhibition at 10 μMol

T3 sequence (P12931 whole entry): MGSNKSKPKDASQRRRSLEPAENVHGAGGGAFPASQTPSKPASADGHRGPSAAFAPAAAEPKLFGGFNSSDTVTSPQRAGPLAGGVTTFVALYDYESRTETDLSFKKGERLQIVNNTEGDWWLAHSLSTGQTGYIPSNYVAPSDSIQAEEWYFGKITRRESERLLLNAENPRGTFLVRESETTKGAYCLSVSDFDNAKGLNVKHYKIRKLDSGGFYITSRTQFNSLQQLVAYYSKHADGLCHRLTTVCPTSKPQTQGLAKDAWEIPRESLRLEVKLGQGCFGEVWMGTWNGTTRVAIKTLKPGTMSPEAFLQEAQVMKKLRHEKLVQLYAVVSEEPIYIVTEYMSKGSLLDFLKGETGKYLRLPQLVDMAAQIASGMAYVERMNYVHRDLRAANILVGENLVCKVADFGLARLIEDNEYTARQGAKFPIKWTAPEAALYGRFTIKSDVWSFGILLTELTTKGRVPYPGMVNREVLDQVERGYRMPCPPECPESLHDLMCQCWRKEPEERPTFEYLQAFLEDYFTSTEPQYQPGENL
T2 sequence (P07949 29-1114): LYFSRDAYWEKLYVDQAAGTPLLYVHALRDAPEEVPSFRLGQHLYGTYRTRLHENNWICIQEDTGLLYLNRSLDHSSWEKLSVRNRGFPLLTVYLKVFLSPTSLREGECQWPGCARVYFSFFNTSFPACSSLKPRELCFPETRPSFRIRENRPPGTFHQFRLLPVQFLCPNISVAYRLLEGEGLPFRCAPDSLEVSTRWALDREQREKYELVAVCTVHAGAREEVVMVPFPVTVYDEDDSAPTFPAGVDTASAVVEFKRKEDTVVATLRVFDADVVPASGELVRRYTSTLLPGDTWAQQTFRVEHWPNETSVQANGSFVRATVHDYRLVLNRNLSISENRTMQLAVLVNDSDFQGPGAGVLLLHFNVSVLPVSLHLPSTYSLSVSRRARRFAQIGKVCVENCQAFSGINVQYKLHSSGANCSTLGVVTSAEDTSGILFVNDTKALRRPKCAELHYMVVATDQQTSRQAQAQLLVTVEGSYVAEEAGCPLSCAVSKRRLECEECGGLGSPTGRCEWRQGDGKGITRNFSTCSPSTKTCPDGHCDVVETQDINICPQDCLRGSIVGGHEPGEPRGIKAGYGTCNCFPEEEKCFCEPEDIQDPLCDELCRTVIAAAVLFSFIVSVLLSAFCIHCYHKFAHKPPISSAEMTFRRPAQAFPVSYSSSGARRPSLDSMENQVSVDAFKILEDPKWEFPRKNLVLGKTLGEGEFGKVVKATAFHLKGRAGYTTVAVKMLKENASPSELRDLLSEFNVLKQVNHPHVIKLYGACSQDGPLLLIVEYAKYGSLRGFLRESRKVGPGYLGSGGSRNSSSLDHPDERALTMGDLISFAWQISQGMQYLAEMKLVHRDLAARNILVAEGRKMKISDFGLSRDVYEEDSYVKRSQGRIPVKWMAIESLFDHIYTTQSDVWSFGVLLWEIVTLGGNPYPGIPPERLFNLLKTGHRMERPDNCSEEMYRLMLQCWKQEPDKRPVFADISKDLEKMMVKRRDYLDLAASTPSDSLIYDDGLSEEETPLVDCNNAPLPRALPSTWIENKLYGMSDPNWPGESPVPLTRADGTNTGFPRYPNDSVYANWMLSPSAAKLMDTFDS
T1 sequence (P00533 25-1210): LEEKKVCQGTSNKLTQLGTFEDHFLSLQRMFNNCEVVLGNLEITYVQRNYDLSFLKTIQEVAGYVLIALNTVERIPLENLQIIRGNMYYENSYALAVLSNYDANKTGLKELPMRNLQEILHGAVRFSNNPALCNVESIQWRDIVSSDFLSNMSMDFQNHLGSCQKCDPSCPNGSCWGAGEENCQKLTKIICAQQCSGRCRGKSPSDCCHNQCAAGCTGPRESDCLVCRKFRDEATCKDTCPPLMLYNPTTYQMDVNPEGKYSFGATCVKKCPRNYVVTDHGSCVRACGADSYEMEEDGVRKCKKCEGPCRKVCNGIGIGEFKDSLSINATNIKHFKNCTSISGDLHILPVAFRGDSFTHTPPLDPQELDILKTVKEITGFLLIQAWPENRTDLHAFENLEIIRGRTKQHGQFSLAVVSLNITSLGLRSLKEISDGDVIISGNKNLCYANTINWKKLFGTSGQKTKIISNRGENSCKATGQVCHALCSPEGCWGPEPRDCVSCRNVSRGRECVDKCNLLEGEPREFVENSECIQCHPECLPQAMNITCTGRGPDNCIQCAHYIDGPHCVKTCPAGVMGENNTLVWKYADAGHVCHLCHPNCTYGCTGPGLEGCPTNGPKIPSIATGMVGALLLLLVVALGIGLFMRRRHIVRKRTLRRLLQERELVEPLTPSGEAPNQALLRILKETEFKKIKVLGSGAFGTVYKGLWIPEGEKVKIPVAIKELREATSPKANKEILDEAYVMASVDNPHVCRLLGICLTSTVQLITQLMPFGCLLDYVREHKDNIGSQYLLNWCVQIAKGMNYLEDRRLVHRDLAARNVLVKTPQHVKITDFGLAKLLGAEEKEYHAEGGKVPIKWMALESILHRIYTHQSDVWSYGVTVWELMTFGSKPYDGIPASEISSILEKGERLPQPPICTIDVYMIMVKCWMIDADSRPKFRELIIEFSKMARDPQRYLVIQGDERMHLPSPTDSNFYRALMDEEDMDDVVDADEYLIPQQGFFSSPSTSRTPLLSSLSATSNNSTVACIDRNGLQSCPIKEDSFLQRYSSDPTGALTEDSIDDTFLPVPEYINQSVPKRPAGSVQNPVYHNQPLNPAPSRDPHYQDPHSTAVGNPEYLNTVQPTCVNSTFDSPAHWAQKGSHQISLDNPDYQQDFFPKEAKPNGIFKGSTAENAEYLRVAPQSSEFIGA
T5 sequence (P28482 whole entry): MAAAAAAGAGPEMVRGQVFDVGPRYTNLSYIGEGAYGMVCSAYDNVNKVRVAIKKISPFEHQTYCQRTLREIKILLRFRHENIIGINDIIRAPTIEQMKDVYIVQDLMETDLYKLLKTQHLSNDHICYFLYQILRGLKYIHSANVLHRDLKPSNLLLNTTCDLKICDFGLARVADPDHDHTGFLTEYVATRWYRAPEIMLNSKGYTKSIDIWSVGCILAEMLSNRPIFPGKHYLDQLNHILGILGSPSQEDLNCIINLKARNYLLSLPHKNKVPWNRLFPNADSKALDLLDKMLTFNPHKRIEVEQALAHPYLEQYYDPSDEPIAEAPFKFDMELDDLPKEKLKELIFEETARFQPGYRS
T7 sequence (P09619 33-1106): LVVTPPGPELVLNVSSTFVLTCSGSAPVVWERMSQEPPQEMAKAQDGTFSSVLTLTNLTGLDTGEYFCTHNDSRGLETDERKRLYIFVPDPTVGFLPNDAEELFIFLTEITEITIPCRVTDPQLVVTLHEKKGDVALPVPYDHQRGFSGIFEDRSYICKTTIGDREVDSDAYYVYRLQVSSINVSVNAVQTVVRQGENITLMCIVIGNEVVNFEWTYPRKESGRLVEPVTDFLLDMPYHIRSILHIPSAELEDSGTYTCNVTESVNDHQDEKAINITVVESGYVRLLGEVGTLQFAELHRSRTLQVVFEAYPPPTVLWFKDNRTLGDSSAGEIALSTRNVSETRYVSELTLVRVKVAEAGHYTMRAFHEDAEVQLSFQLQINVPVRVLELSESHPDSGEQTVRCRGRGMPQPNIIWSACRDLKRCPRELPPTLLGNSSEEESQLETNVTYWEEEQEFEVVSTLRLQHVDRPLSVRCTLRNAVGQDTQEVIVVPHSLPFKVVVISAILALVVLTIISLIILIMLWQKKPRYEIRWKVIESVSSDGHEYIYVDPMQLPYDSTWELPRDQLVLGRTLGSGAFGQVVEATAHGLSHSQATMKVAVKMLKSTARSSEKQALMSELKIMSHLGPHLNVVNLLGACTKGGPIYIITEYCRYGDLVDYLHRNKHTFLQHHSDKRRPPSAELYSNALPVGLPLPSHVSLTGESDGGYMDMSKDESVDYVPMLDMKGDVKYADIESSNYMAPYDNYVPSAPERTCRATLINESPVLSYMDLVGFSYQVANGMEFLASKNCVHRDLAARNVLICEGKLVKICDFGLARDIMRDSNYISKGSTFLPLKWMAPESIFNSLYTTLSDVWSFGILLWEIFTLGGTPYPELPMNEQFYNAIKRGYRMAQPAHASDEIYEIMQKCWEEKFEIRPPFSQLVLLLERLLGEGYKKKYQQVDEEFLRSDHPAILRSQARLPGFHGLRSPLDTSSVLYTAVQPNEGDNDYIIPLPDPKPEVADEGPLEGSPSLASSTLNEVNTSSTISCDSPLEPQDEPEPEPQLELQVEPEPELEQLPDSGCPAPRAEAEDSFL
T9 sequence (P04049 306-648 Y340D/Y341D limits assumed): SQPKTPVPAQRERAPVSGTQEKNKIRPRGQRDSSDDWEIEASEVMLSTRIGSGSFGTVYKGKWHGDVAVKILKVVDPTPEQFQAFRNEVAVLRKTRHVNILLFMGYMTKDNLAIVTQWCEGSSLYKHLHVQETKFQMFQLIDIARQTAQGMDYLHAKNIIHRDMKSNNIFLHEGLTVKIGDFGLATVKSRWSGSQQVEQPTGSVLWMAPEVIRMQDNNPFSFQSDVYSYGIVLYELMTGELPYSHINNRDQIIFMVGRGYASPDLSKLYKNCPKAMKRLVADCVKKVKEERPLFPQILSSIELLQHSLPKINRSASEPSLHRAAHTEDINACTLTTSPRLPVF
T6 sequence (P49841 whole entry): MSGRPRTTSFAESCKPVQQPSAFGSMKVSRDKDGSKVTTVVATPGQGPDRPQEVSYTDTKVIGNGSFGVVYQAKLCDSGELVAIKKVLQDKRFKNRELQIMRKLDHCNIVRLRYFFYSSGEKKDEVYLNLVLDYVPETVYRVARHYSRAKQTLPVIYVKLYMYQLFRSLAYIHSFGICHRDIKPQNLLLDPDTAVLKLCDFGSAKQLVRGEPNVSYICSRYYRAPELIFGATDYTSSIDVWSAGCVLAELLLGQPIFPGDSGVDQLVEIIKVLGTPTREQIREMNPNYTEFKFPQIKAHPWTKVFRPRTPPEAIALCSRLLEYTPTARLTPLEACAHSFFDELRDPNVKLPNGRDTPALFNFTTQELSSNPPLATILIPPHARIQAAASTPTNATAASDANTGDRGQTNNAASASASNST

SMILES: CCOC(=O)c1c[nH]c2c(=O)[nH]c3ccc(-c4cccc(S(C)(=O)=O)c4)cc3c12 [Compound 238, 8-(3-Methanesulfonyl-phenyl)-4-oxo-4,5-dihydro-3H-pyrrolo[2,3-c]quinoline-1-ethyl carboxylate]
- inhibition at 1 µM (EGFR (h); [1]): 3%
- IC50 (RET): 0.1 to 1 µM
- inhibition at 1 µM (cSRC (h); compound 1 μM, ATP (200), read-out: % inhibition at 1 μMol): 7%
- inhibition at 1 µM (ROCK-II (h); [2]): 5%
- inhibition at 1 µM (MAPK2 (h); compound 1 μM, ATP (155), read-out: % inhibition at 1 μMol): 0%
- inhibition at 1 µM (GSK3B (h); [2]): 0%
- inhibition at 1 µM (PDGFRβ (h); compound 1 μM, ATP (120), read-out: % inhibition at 1 μMol): 0%
- inhibition at 1 µM (JAK3 (h); [1]): 5%
- inhibition at 1 µM (c-RAF (h); compound 1 μM, ATP (45), read-out: % inhibition at 1 μMol): 3%

SMILES: CCOC(=O)c1c[nH]c2c(=O)[nH]c3ccccc3c12 [Compound 1, 4-Oxo-4,5-dihydro-3H-pyrrolo[2,3-c]quinoline-1-ethyl carboxylate]
- inhibition at 20 µM (EGFR (h); [3]): 19%
- IC50 (RET): 1 to 10 µM
- inhibition at 20 µM (cSRC (h); [3]): 86%
- inhibition at 20 µM (FGFR2 (h); [4]): 82%
- inhibition at 20 µM (ROCK-II (h); [3]): 8%
- inhibition at 20 µM (MAPK2 (h); [3]): 1%
- inhibition at 20 µM (PDGFRβ (h); [3]): 13%
- inhibition at 20 µM (JAK3 (h); [3]): 58%
- inhibition at 20 µM (c-RAF (h); [3]): 17%
- inhibition at 20 µM (CDK2/cyclinE (h); [4]): 97%
- inhibition at 20 µM (IGF-1R (h); [4]): 42%

SMILES: CCOC(=O)c1c[nH]c2c(=O)[nH]c3ccc(S(=O)(=O)Nc4ccc(F)cc4)cc3c12 [Compound 12, 8-(4-Fluorophenylsulfamoyl)-4-oxo-4,5-dihydro-3H-pyrrolo[2,3-c]quinoline-1-ethyl carboxylate]
- inhibition at 10 µM (EGFR (h); [5]): 13%
- IC50 (RET): < 0.1 µM
- inhibition at 10 µM (cSRC (h); [5]): 91%
- inhibition at 10 µM (FGFR2 (h); [6]): 91%
- inhibition at 10 µM (ROCK-II (h); [5]): 17%
- inhibition at 10 µM (MAPK2 (h); [5]): 3%
- inhibition at 10 µM (GSK3B (h); [5]): 22%
- inhibition at 10 µM (PDGFRβ (h); [5]): 0%
- inhibition at 10 µM (JAK3 (h); [5]): 50%
- inhibition at 10 µM (c-RAF (h); [5]): 79%
- inhibition at 10 µM (CDK2/cyclinE (h); [6]): 12%
- inhibition at 10 µM (IGF-1R (h); [6]): 0%
